From patent US10034861B2 (priority 2016, dated 2018)

Experiments:
Assay type in all cases: biochemical
PDE1C = PDE1C (Homo sapiens (Human), UniProt Q14123); assay: biochemical; conditions: 15 nM tritium labelled cAMP, 1 hr at room temperature, SPA beads
Text: (§1) Table 1 lists the IC50 value for inhibition of PDE1 by the compounds of the invention. […] PDE1 assays are described in the Experimental Section.

PDE1A = PDE1A (Homo sapiens (Human), UniProt P54750); assay: biochemical; conditions: 15 nM tritium labelled cAMP, 1 hr at room temperature, SPA beads
Text: as §1

PDE1B = PDE1B (Homo sapiens (Human), UniProt Q01064); assay: PDE1 inhibition assay (PDE1B); conditions: 15 nM tritium labelled cAMP, 1 hr at room temperature, SPA beads; read-out: PDE1B, IC50
Text: as §1

Chain of PDE1C (Q14123 whole entry): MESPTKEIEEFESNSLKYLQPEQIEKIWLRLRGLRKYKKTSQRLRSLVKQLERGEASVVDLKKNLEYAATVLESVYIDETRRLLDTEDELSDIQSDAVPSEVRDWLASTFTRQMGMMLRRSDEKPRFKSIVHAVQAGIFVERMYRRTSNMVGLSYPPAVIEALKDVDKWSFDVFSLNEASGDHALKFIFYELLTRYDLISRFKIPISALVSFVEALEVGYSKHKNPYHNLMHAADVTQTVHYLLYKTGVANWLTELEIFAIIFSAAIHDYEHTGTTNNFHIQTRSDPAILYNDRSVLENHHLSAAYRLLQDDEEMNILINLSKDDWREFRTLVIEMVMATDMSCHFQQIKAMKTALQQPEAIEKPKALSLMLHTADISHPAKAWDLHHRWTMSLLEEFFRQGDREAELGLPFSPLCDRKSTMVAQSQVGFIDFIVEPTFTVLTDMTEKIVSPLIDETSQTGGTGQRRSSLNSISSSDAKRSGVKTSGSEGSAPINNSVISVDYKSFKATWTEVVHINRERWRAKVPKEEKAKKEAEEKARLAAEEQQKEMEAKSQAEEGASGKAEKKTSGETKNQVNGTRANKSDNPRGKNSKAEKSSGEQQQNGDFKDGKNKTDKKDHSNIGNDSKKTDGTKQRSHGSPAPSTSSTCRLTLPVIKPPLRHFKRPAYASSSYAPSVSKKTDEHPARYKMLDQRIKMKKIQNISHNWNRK
Chain of PDE1A (P54750 whole entry): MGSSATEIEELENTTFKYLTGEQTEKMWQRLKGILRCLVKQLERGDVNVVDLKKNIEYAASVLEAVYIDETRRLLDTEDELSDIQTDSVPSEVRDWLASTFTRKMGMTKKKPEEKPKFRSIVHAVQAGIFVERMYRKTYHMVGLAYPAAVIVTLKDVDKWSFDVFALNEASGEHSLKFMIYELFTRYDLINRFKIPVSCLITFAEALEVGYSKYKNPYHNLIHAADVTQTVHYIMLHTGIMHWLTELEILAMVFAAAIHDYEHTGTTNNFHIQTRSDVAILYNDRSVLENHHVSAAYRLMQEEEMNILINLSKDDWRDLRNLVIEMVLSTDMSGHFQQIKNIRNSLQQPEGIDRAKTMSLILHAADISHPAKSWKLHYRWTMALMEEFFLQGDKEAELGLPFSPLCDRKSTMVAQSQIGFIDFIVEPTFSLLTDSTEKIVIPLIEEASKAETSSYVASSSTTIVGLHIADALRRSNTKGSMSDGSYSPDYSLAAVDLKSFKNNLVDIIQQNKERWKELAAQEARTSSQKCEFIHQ
Chain of PDE1B (Q01064 whole entry): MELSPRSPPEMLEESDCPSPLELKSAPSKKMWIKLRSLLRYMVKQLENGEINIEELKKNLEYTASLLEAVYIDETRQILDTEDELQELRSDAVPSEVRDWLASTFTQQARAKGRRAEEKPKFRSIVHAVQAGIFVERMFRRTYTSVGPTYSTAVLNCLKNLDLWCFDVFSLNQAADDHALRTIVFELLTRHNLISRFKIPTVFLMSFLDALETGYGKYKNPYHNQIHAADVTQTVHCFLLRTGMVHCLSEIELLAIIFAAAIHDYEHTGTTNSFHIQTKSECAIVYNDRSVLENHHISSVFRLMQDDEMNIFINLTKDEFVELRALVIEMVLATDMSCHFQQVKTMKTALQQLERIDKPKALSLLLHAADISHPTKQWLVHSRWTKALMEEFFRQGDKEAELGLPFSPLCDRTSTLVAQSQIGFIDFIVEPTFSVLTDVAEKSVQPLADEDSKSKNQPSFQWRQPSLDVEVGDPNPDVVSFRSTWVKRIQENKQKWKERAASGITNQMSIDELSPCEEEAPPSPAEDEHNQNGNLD

| SMILES | IC50 (PDE1C) [nM] | IC50 (PDE1A) [nM] | IC50 (PDE1B) [nM] |
| --- | --- | --- | --- |
| Cc1nn(C(C)C)c2c(NCc3cnn(C)c3)cc(-c3ccc[nH]c3=O)nc12 [Example 177, 3-[1-isopropyl-3-methyl-7-[(1-methylpyrazol-4-yl)methylamino]pyrazolo[4,3-b]pyridin-5-yl]-1H-pyridin-2-one] | 180 | 130 | 20 |
| CCOc1ncccc1-c1cc(NCc2cccc(C(F)(F)F)n2)c2c(n1)c(C)nn2C(C)C [Example 107, 5-(2-ethoxy-3-pyridyl)-1-isopropyl-3-methyl-N-[[6-(trifluoromethyl)-2-pyridyl]methyl]pyrazolo[4,3-b]pyridin-7-amine] | 170 | 110 | 5.6 |
| CCOc1ncccc1-c1cc(NCc2ccncc2)c2c(cnn2C(C)C)n1 [Example 22, 5-(2-ethoxy-3-pyridyl)-1-isopropyl-N-(4-pyridylmethyl)pyrazolo[4,3-b]pyridin-7-amine] | 430 | 250 | 50 |
| Cc1nn(C(C)C)c2c(NCc3cnn(C)c3)cc(N3CCN(C(C)(C)C)C3=O)nc12 [Example 153, 1-tert-butyl-3-[1-isopropyl-3-methyl-7-[(1-methylpyrazol-4-yl)methylamino]pyrazolo[4,3-b]pyridin-5-yl]imidazolidin-2-one] | 270 | 130 | 76 |
| CCOc1ncccc1-c1cc(NCc2noc(C)n2)c2c(n1)c(C)nn2C(C)C [Example 52, 5-(2-ethoxy-3-pyridyl)-1-isopropyl-3-methyl-N-[(5-methyl-1,2,4-oxadiazol-3-yl)methyl]pyrazolo[4,3-b]pyridin-7-amine] | 4.4 | 1.9 | 0.17 |
| CCOc1ncccc1-c1cc(NCc2ccnc(C)c2)c2c(n1)c(C)nn2C(C)C [Example 103, 5-(2-ethoxy-3-pyridyl)-1-isopropyl-3-methyl-N-[(2-methyl-4-pyridyl)methyl]pyrazolo[4,3-b]pyridin-7-amine] | 17 | 5.4 | 2.9 |
| CCOc1ncccc1-c1cc(NCc2cn(C)nn2)c2c(n1)c(C)nn2C(C)C [Example 6, 5-(2-ethoxy-3-pyridyl)-1-isopropyl-3-methyl-N-[(1-methyltriazol-4-yl)methyl]pyrazolo[4,3-b]pyridin-7-amine] | 5.6 | 4.8 | 0.22 |
| CCOc1ncccc1-c1cc(NCc2ccnc(OC)c2)c2c(n1)c(C)nn2C(C)C [Example 104, 5-(2-ethoxy-3-pyridyl)-1-isopropyl-N-[(2-methoxy-4-pyridyl)methyl]-3-methyl-pyrazolo[4,3-b]pyridin-7-amine] | 6.3 | 2.2 | 0.16 |
| CCOc1ncccc1-c1cc(NCc2cnn(C)c2)c2c(cnn2C)n1 [Example 16, 5-(2-ethoxypyridin-3-yl)-1-methyl-N-((1-methyl-1H-pyrazol-4-yl)methyl)-1H-pyrazolo[4,3-b]pyridin-7-amine] | 1800 | 670 | 92 |
| Cc1nn(C(C)C)c2c(NCc3cnn(C)c3)cc(-c3ncco3)nc12 [Example 168, 1-isopropyl-3-methyl-N-[(1-methylpyrazol-4-yl)methyl]-5-oxazol-2-yl-pyrazolo[4,3-b]pyridin-7-amine] | 36 | 14 | 2.6 |
| Cc1nn(C(C)C)c2c(NCc3cnn(C)c3)cc(-c3cccnc3OC(C)C)nc12 [Example 97, 5-(2-isopropoxy-3-pyridyl)-1-isopropyl-3-methyl-N-[(1-methylpyrazol-4-yl)methyl]pyrazolo[4,3-b]pyridin-7-amine] | 9.1 | 1.4 | 0.6 |
| CCOc1ncccc1CNc1cc(-c2cccnc2OCC)nc2c(C)nn(C(C)C)c12 [Example 191, 5-(2-ethoxy-3-pyridyl)-N-[(2-ethoxy-3-pyridyl)methyl]-1-isopropyl-3-methyl-pyrazolo[4,3-b]pyridin-7-amine] | 400 | 160 | 10 |
| COc1ncccc1-c1cc(NCc2cnn(C)c2)c2c(n1)c(C)nn2C(C)C [Example 62, 1-isopropyl-5-(2-methoxy-3-pyridyl)-3-methyl-N-[(1-methylpyrazol-4-yl)methyl]pyrazolo[4,3-b]pyridin-7-amine] | 21 | 16 | 2.4 |
| CCOc1ncccc1-c1cc(NCc2cc(OC)ccn2)c2c(n1)c(C)nn2C(C)C [Example 81, 5-(2-ethoxy-3-pyridyl)-1-isopropyl-N-[(4-methoxy-2-pyridyl)methyl]-3-methyl-pyrazolo[4,3-b]pyridin-7-amine] | 4.7 | 1 | 0.26 |
| Cc1nn(C(C)C)c2c(NCc3cc[nH]n3)cc(-c3ccc[nH]c3=O)nc12 [Example 187, 3-[1-isopropyl-3-methyl-7-(1H-pyrazol-3-ylmethylamino)pyrazolo[4,3-b]pyridin-5-yl]-1H-pyridin-2-one] | 250 | 140 | 18 |
| CCOc1ncccc1-c1cc(NCc2ccnc(C)n2)c2c(n1)c(C)nn2C(C)C [Example 105, 5-(2-ethoxy-3-pyridyl)-1-isopropyl-3-methyl-N-[(2-methylpyrimidin-4-yl)methyl]pyrazolo[4,3-b]pyridin-7-amine] | 150 | 54 | 12 |
| CCOc1ncccc1-c1cc(NCc2cnn(CC)c2)c2c(n1)c(C)nn2C(C)C [Example 109, 5-(2-ethoxy-3-pyridyl)-N-[(1-ethylpyrazol-4-yl)methyl]-1-isopropyl-3-methyl-pyrazolo[4,3-b]pyridin-7-amine] | 11 | 4.9 | 0.66 |
| COc1ncccc1-c1cc(NCc2cnc(C)s2)c2c(n1)c(C)nn2C(C)C [Example 173, 1-isopropyl-5-(2-methoxy-3-pyridyl)-3-methyl-N-[(2-methylthiazol-5-yl)methyl]pyrazolo[4,3-b]pyridin-7-amine] | 26 | 49 | 6.3 |
| Cc1nn(C(C)C)c2c(NCc3cnn(C)c3)cc(-c3cnn(C)c3C)nc12 [Example 66, 5-(1,5-dimethylpyrazol-4-yl)-1-isopropyl-3-methyl-N-[(1-methylpyrazol-4-yl)methyl]pyrazolo[4,3-b]pyridin-7-amine] | 220 | 210 | 59 |
| CCOc1ncccc1-c1cc(NCc2ccccn2)c2c(n1)c(C)nn2C(C)C [Example 100, 5-(2-ethoxy-3-pyridyl)-1-isopropyl-3-methyl-N-(2-pyridylmethyl)pyrazolo[4,3-b]pyridin-7-amine] | 21 | 6.3 | 0.39 |
| CCOc1ncccc1-c1cc(NCc2cnccn2)c2c(n1)c(C)nn2C(C)C [Example 76, 5-(2-ethoxy-3-pyridyl)-1-isopropyl-3-methyl-N-(pyrazin-2-ylmethyl)pyrazolo[4,3-b]pyridin-7-amine] | 32 | 23 | 2.9 |
| CCOc1ncccc1-c1cc(CNc2ncn(C)n2)c2c(n1)c(C)nn2C(C)C [Example 158, N-[[5-(2-ethoxy-3-pyridyl)-1-isopropyl-3-methyl-pyrazolo[4,3-b]pyridin-7-yl]methyl]-1-methyl-1,2,4-triazol-3-amine] | 50 | 23 | 4.9 |
| CCOc1ncccc1-c1cc(CCc2cncc(OC)c2)c2c(n1)c(C)nn2C(C)C [Example 159, 5-(2-ethoxy-3-pyridyl)-1-isopropyl-7-[2-(5-methoxy-3-pyridyl)ethyl]-3-methyl-pyrazolo[4,3-b]pyridine] | 1600 | 270 | 70 |
| CCCOc1ncccc1-c1cc(NCc2cnn(C)c2)c2c(n1)c(C)nn2C(C)C [Example 94, 1-isopropyl-3-methyl-N-[(1-methylpyrazol-4-yl)methyl]-5-(2-propoxy-3-pyridyl)pyrazolo[4,3-b]pyridin-7-amine] | 4.9 | 1.4 | 0.065 |
| CCOc1ncccc1-c1cc(NCc2c[nH]cn2)c2c(n1)c(C)nn2C(C)C [Example 40, 5-(2-ethoxy-3-pyridyl)-N-(1H-imidazol-4-ylmethyl)-1-isopropyl-3-methyl-pyrazolo[4,3-b]pyridin-7-amine] | 32 | 14 | 1 |
| CCOc1ncccc1-c1cc(NCc2cncc(OC)c2)c2c(n1)c(C)nn2C(C)C [Example 106, 5-(2-ethoxy-3-pyridyl)-1-isopropyl-N-[(5-methoxy-3-pyridyl)methyl]-3-methyl-pyrazolo[4,3-b]pyridin-7-amine] | 3.9 | 2.1 | 0.45 |
| CCNc1ncccc1-c1cc(NCc2cnn(C)c2)c2c(n1)c(C)nn2C(C)C [Example 79, 5-(2-(ethylamino)pyridin-3-yl)-1-isopropyl-3-methyl-N-((1-methyl-1H-pyrazol-4-yl)methyl)-1H-pyrazolo[4,3-b]pyridin-7-amine] | 260 | 230 | 31 |
| CCCOc1ncccc1-c1cc(NCc2ncn(C)n2)c2c(n1)c(C)nn2C(C)C [Example 145, 1-isopropyl-3-methyl-N-[(1-methyl-1,2,4-triazol-3-yl)methyl]-5-(2-propoxy-3-pyridyl)pyrazolo[4,3-b]pyridin-7-amine] | 1.2 | 0.41 | 0.095 |
| CCOc1ncccc1-c1cc(NCc2ccn(C)n2)c2c(n1)c(C)nn2C(C)C [Example 60, 5-(2-ethoxy-3-pyridyl)-1-isopropyl-3-methyl-N-[(1-methylpyrazol-3-yl)methyl]pyrazolo[4,3-b]pyridin-7-amine] | 12 | 6.5 | 0.59 |
